Values after ≈ are worked out from the molar mass of the structure shown. Where only a bound is given, the exact number is not on record here.

Data set [1] deals with Transient receptor potential cation channel subfamily V member 4 (Homo sapiens, UniProt Q9HBA0). Description: Antagonist activity at human TRPV4 expressed in BHK or HEK MSR2 cells assessed as inhibition of TRPV4 agonist GSK634775 (EC80)-induced response incubated for 10 mins. In kind it is cell-based.
Data set [2] in a line: MRT in iv dosed rat. In kind it is ADME, organism-based. The conditions noted are these: in vivo.
Data set [3] is described as follows: Clearance in iv dosed rat. The following applies: in vivo. In kind it is ADME, organism-based.
Data set [4] can be described thus: Dose normalized AUC in orally dosed rat. It counts as ADME, organism-based. The following applies: in vivo, po.
A short description of data set [5]: Oral bioavailability in rat. It counts as ADME, organism-based. The following applies: in vivo.
Data set [6] in a line: Fraction unbound in rat plasma. In kind it is ADME, cell-free.
The target in a further data set is Cytochrome P450 3A4 (Homo sapiens, UniProt P08684). The data set can be described thus: Time dependent inhibition of recombinant human CYP3A4 expressed in bactosomes at 100 to 300 uM using 7-benzyloxy-4-(trifluoromethyl)-coumarin substrate in presence of NADPH-generating system incubated up to 15 mins by fluorescence based assay. It counts as ADME. The following applies: recombinant enzyme, 0.25 h, dose 100-300 µM.

The nature of data set [7]: Distribution coefficient, log D of the compound by chromatographic method. In kind it is physicochemical. The conditions noted are these: octanol/water.
Data set [8] in a line: Solubility of the compound by CLND assay. In kind it is physicochemical.
Data set [9] is described as follows: Cmax in rat. It counts as ADME. The conditions noted are these: in vivo.
Data set [10] in a line: Volume of distribution at steady state in iv dosed rat. The conditions noted are these: in vivo, read-out: Vdss. It counts as ADME, organism-based.
Data set [11] in a line: Unbound clearance in iv dosed rat. In kind it is ADME, organism-based. The following applies: in vivo.

Sequence of Cytochrome P450 3A4 (P08684 whole entry): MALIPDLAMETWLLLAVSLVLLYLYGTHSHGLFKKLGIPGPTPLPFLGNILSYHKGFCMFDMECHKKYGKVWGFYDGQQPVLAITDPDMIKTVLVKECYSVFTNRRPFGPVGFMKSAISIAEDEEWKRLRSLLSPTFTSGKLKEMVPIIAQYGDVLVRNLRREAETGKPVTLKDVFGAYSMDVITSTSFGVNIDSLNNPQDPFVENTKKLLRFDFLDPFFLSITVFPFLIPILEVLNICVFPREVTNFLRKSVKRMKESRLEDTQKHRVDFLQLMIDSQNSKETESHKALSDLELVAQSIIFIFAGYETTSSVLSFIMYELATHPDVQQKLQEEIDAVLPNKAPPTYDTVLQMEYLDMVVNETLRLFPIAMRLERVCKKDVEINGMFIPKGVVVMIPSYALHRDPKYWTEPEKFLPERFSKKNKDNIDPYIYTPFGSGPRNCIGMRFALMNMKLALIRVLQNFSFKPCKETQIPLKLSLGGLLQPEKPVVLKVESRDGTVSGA
Sequence of Transient receptor potential cation channel subfamily V member 4 (Q9HBA0 whole entry): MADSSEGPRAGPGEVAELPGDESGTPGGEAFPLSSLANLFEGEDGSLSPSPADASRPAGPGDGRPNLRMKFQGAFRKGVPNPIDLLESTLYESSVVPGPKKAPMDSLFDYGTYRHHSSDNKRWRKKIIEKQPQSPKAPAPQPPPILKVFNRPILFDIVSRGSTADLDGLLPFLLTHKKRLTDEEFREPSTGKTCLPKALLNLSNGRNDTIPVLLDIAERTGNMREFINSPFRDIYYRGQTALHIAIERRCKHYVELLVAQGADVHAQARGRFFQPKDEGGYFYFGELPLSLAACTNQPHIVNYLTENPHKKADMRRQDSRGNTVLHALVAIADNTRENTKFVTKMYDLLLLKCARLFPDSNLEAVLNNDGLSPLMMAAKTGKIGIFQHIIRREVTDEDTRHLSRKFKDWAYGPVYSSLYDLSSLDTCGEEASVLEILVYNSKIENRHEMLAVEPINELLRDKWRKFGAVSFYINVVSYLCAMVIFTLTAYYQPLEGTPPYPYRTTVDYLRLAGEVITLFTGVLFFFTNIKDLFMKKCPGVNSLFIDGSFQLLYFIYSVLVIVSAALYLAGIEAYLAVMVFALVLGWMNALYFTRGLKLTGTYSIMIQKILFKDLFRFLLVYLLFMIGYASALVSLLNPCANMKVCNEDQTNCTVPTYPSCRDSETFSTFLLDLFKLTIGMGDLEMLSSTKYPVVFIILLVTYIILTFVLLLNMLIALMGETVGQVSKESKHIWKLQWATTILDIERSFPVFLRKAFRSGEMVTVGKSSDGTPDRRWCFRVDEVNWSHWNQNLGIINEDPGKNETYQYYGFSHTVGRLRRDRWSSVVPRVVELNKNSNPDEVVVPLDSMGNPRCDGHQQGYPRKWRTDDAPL

As usually defined, the IC50 is the concentration that inhibits the measured activity by half. `CN(CCC(O)COc1ccc(C#N)c(F)c1)S(=O)(=O)c1ccc(Cl)cc1Cl` (racemic): the IC50 in data set [1] is 10 µM.

Regarding `N#Cc1ccc(OCC(N)CCNS(=O)(=O)c2cccc(Cl)c2)cc1F` (racemic), the IC50 in [1] is 12.6 µM.

As for `N#Cc1ccc(OC[C@@H](N)CCNS(=O)(=O)c2ccccc2C(F)(F)F)cc1F`, the IC50 in data set [1] is 0.0398 µM.

As usually defined, the MRT is a mean duration of stay, worked out from the concentration-time curve. As a reminder, the clearance is the rate of elimination divided by the concentration. Low values mean inefficient removal, high ones efficient removal. One may read the bioavailability as the share of a dose that reaches the circulation, judged against a reference dose that is usually intravenous. A higher bioavailability goes with much systemic uptake. The term fraction unbound denotes free concentration divided by total concentration. High values mean weak binding, low ones extensive binding. For the compound `C[C@](N)(CCNS(=O)(=O)c1ccc(C#N)cc1C(F)(F)F)COc1ccc(C#N)c(F)c1`, in [2], the MRT amounted to 7 h. In addition, the clearance in [3] was 37 mL/min/kg. This compound also showed an AUC/dose in [4] of 0.6 µg·h/mL. This compound also displayed a bioavailability in data set [5] of 100%. The fraction unbound in data set [6] amounted to 0.064. For the same compound, the “inhibition (INH)” value on Cytochrome P450 3A4 was “Not Active”.

Regarding `NC(CCNS(=O)(=O)c1ccc(Cl)cc1Cl)COc1cccc(Cl)c1` (centres undefined), in data set [1], the IC50 is 12.6 µM.

For the compound `N#Cc1ccc(OC[C@@H](N)CCNS(=O)(=O)c2ccc(C(F)(F)F)cc2)cc1F`, the IC50 in [1] is 0.631 µM.

As for `COc1ccccc1S(=O)(=O)NCC[C@H](N)COc1ccc(C#N)c(F)c1`, in [1], the IC50 is 7.94 µM.

In general, chromatographic logD refers to lipophilicity estimated from chromatographic retention. Read a low chromatographic logD as lower lipophilicity. The solubility (kinetic) is the concentration staying in solution when a stock, usually in DMSO, is diluted into the medium. In the case of `N#Cc1ccc(OCC(N)CCNS(=O)(=O)c2ccc(Cl)cc2Cl)cc1F` (racemic), in [7], the chromatographic logD worked out at 4.6. For the same compound, the solubility (kinetic) in [8] was ≥ 390 µM.

Usually Cmax stands for the peak of the concentration-time curve. `N#Cc1ccc(OC[C@@H](N)CCNS(=O)(=O)c2ccc(Cl)cc2Cl)cc1F`: the chromatographic logD in [7] turned out to be 4.5. This compound also displayed a solubility (kinetic) in [8] of 381 µM (≈ 165 µg/mL). The compound further gave a Cmax in data set [9] of 930 ng/mL. This compound registered an MRT in data set [2] of 7.5 h. Moreover, the Vd in data set [10] amounted to 1.8 L/kg. In [3], this compound came in with a clearance of 4.3 mL/min/kg. In data set [4], the AUC/dose stood at 4.7 µg·h/mL. This compound also yielded a bioavailability in [5] of 85%. Also, in [6], the fraction unbound is 0.0084. Moreover, in [11], the CL free was 512 mL/min/kg. For the same compound, the “inhibition (INH)” value at Cytochrome P450 3A4 is recorded as “Active”.

In turn, `N#Cc1ccc(OCC(O)CCNS(=O)(=O)c2ccc(Cl)cc2Cl)cc1F` (centres undefined) gave a chromatographic logD in data set [7] of 5.2. Also, the solubility (kinetic) in data set [8] was found to be 113 µM (≈ 49 µg/mL).

As to `N#Cc1ccc(OCC(N)CCNS(=O)(=O)c2ccccc2)cc1F` (racemic), the IC50 in [1] was 20 µM.

Regarding `N#Cc1ccc(N)c(OC[C@@H](N)CCNS(=O)(=O)c2ccc(Cl)cc2Cl)c1`, the mean residence time MRT in data set [2] stood at 2.3 h. For the same compound, in data set [3], the clearance came out at 38 mL/min/kg. Also, in [4], the AUC/dose was 0.1 µg·h/mL. In addition, the bioavailability in data set [5] turned out to be 22%. Also, in [6], the fraction unbound was 0.029. Besides, the “inhibition (INH)” value on Cytochrome P450 3A4 is listed as “Active”.

Consider `N#Cc1ccc(OCC2(O)CCN(S(=O)(=O)c3ccc(Cl)cc3Cl)CC2)cc1F`, for which the IC50 in data set [1] was 0.1 µM. In data set [8], this compound registered a solubility (kinetic) of 7.5 µM (≈ 3.44 µg/mL).

`Cc1cccc(OCC(N)CCNS(=O)(=O)c2ccc(Cl)cc2Cl)c1` (centres undefined): in [1], the IC50 was > 25.1 µM.

On to `N#Cc1ccc(OC[C@@H](N)CCNS(=O)(=O)c2ccccc2OC(F)(F)F)cc1F`, for which the IC50 in data set [1] is 0.631 µM.

Take `N#Cc1ccc(S(=O)(=O)NCC[C@H](N)COc2ccc(C#N)c(F)c2)c(C(F)(F)F)c1`: the MRT in data set [2] is 6.9 h. Moreover, the clearance in data set [3] is 4.7 mL/min/kg. The compound further yielded an AUC/dose in data set [4] of 3.7 µg·h/mL. This compound yielded a bioavailability in [5] of 100%. Further, the fraction unbound in [6] was determined as 0.015. The “inhibition (INH)” value at Cytochrome P450 3A4 is “Active”.
